Source: patent publication US10035808B1, “Isatin peroxo compounds with antibacterial activities and a method of preparing the same” (SHAANXI UNIVERSITY OF SCIENCE AND TECHNOLOGY, priority 2018, dated 2018)

How the values were obtained:
[1] = system: Enterotoxigenic Escherichia coli (ETEC); assay: Bacteriostatic circle test, ETEC; format: cell-based; conditions: bacteriostatic circle method; strain ETEC; DMSO negative control
Method: (§1) The compounds of the present invention have been tested for antibacterial activity, and a bacteriostatic circle method was used to determine the antibacterial activity.
(§2) Test strains and medium: Enteropathogenic Escherichia coli (EPEC), Enterotoxigenic Escherichia coli (ETEC), Enteroinvasive Escherichia coli (EIEC), Enterohemorrhagic Escherichia coli (EHEC); beef peptone medium.
(§3) Preparation of test strains: (1) test strains were placed in culture medium in test tubes in an incubator (bacteria: 37° C., 24 hours; fungi: 28° C., 48 hours), and stored at 0-4° C.; (2) the test strains were inoculated with a small loop in test tubes containing 9 mL sterile water, mixing well to make suspensions, and adjusting the concentration to 10^6-10^7 cfu·mL^−1. The suspensions were used for bacteriostatic circle test.
(§4) Antibacterial activity determination: solvent dimethyl sulfoxide (DMSO) was used as a negative control, the sizes of antibacterial ring diameters indicated the strength of the antibacterial activities.

[2] = system: Enterohemorrhagic Escherichia coli (EHEC); assay: Bacteriostatic circle test, EHEC; format: cell-based; conditions: bacteriostatic circle method; strain EHEC; DMSO negative control
Method: as §1, §2, §3, §4

[3] = system: Enteroinvasive Escherichia coli (EIEC); assay: Bacteriostatic circle test, EIEC; format: cell-based; conditions: bacteriostatic circle method; strain EIEC; DMSO negative control
Method: as §1, §2, §3, §4

[4] = system: Enteropathogenic Escherichia coli (EPEC); assay: Bacteriostatic circle test, EPEC; format: cell-based; conditions: bacteriostatic circle method; strain EPEC; DMSO negative control
Method: as §1, §2, §3, §4

[5] = system: all the four tested bacteria (EPEC, ETEC, EIEC, EHEC); assay: Bacteriostatic circle test, summary over all four tested bacteria; format: cell-based, Escherichia coli
Method: as §1, §2, §3, §4

| SMILES | Circle Size [1] | Circle Size [2] | Circle Size [3] | Circle Size [4] | antibacterial activities (result in words) [5] |
| --- | --- | --- | --- | --- | --- |
| CC(=O)C1=C(C)OOc2[nH]c3ccc(C)cc3c21 [Compound 3, 1-(3,6-dimethyl-9H-[1,2]dioxino[3,4-b]indol-4-yl)ethanone] | 18 mm | 17 mm | 17 mm | 17.5 mm | good antibacterial activities |
| O=C(C1=C(c2ccccc2)OOc2[nH]c3c(F)cccc3c21)c1ccccc1 [Compound 12, (8-fluoro-3-phenyl-9H-[1,2]dioxino[3,4-b]indol-4-yl)(phenyl)methanon] | – | 15 mm | 14.5 mm | 14 mm | – |
| O=C(C1=C(c2ccccc2)OOc2[nH]c3ccc(Cl)cc3c21)c1ccccc1 [Compound 5, (6-chloro-3-phenyl-9H-[1,2]dioxino[3,4-b]indol-4-yl)(phenyl)methanone] | 13.5 mm | 14.5 mm | 14 mm | 13 mm | – |
| CC(=O)C1=C(C)OOc2[nH]c3ccc(Cl)cc3c21 [Compound 2, 1-(6-chloro-3-methyl-9H-[1,2]dioxino[3,4-b]indol-4-yl)ethanone] | 15.5 mm | 16.5 mm | 17 mm | 15 mm | good antibacterial activities |
| O=C(C1=C(c2ccccc2)OOc2[nH]c3cc(Cl)ccc3c21)c1ccccc1 [Compound 11, (7-chloro-3-phenyl-9H-[1,2]dioxino[3,4-b]indol-4-yl)(phenyl)methanone] | 12.5 mm | 11.5 mm | 11.5 mm | 12 mm | – |
| CC(=O)C1=C(C)OOc2[nH]c3ccccc3c21 [Compound 1, 1-(3-methyl-9H-[1,2]dioxino[3,4-b]indol-4-yl)ethanone] | 19 mm | 23 mm | 21 mm | 20 mm | good antibacterial activities |
| CC(=O)C1=C(C)OOc2[nH]c3ccc(F)cc3c21 [Compound 7, 1-(6-fluoro-3-methyl-9H-[1,2]dioxino[3,4-b]indol-4-yl)ethanone] | 17.5 mm | 17 mm | 16.5 mm | 17 mm | – |
| CC(=O)C1=C(C)OOc2[nH]c3c(F)cccc3c21 [Compound 9, 1-(8-fluoro-3-methyl-9H-[1,2]dioxino[3,4-b]indol-4-yl)ethanone] | 15.5 mm | 14.5 mm | 14 mm | 15 mm | – |
| O=C(C1=C(c2ccccc2)OOc2[nH]c3ccccc3c21)c1ccccc1 [Compound 4, phenyl(3-phenyl-9H-[1,2]dioxino[3,4-b]indol-4-yl)methanone] | 11 mm | 12.5 mm | 11.5 mm | 12 mm | – |
| CC(=O)C1=C(C)OOc2[nH]c3cc(Cl)ccc3c21 [Compound 8, 1-(7-chloro-3-methyl-9H-[1,2]dioxino[3,4-b]indol-4-yl)ethanone] | 14 mm | 13 mm | 13.5 mm | 13 mm | – |
| Cc1ccc2[nH]c3c(c2c1)C(C(=O)c1ccccc1)=C(c1ccccc1)OO3 [Compound 6, (6-methyl-3-phenyl-9H-[1,2]dioxino[3,4-b]indol-4-yl)(phenyl)methanone] | 15.5 mm | 16 mm | 16 mm | 15 mm | – |
| O=C(C1=C(c2ccccc2)OOc2[nH]c3ccc(F)cc3c21)c1ccccc1 [Compound 10, (6-fluoro-3-phenyl-9H-[1,2]dioxino[3,4-b]indol-4-yl)(phenyl)methanone] | 11 mm | 10.5 mm | 11.5 mm | 10 mm | – |
